Results from paper PMC8330742, “New benzothieno[2,3-c]pyridines as non-steroidal CYP17 inhibitors: design, synthesis, anticancer screening, apoptosis induction, and in silico ADME profile studies” (Journal of Enzyme Inhibition and Medicinal Chemistry, 2021).

Legend:
CCRF-CEM = assay: NCI-60 SRB screen; format: cell-based; conditions: Homo sapiens, single dose 10^−5 M, read-out: Growth inhibition (%)
HL-60(TB) = assay: NCI-60 SRB screen; format: cell-based, human; conditions: Homo sapiens; HL-60 (TB); single dose 10^−5 M; read-out: Growth inhibition (%)
K-562 = assay: NCI-60 SRB screen; format: cell-based, human; conditions: Homo sapiens, K562; K-562; single dose 10^−5 M; read-out: Growth inhibition (%)
MOLT-4 = assay: NCI-60 SRB screen; format: cell-based; conditions: Homo sapiens; MOLT-4; single dose 10^−5 M; read-out: Growth inhibition (%)
SR = assay: NCI-60 SRB screen; format: cell-based; conditions: Homo sapiens, single dose 10^−5 M, read-out: Growth inhibition (%)
A549/ATCC = assay: NCI-60 SRB screen; format: cell-based, human; conditions: Homo sapiens, single dose 10^−5 M, read-out: Growth inhibition (%)
EKVX = assay: NCI-60 SRB screen; format: cell-based, human; conditions: Homo sapiens, single dose 10^−5 M, read-out: Growth inhibition (%)
HOP-62 = assay: NCI-60 SRB screen; format: cell-based, human; conditions: Homo sapiens; HOP-62; single dose 10^−5 M; read-out: Growth inhibition (%)
HOP-92 = assay: NCI-60 SRB screen; format: cell-based, human; conditions: Homo sapiens; HOP-92; single dose 10^−5 M; read-out: Growth inhibition (%)
NCI-H226 = assay: NCI-60 SRB screen; format: cell-based, human; conditions: Homo sapiens; NCI-H226; single dose 10^−5 M; read-out: Growth inhibition (%)
NCI-H23 = assay: NCI-60 SRB screen; format: cell-based, human; conditions: Homo sapiens; NCI-H23; single dose 10^−5 M; read-out: Growth inhibition (%)
NCI-H322M = assay: NCI-60 SRB screen; format: cell-based, human; conditions: Homo sapiens, single dose 10^−5 M, read-out: Growth inhibition (%)
NCI-H460 = assay: NCI-60 SRB screen; format: cell-based, human; conditions: Homo sapiens; NCI-H460; single dose 10^−5 M; read-out: Growth inhibition (%)
NCI-H522 = assay: NCI-60 SRB screen; format: cell-based, human; conditions: Homo sapiens; NCI-H522; single dose 10^−5 M; read-out: Growth inhibition (%)
COLO 205 = assay: NCI-60 SRB screen; format: cell-based, human; conditions: Homo sapiens; COLO 205; single dose 10^−5 M; read-out: Growth inhibition (%)
HCC-2998 = assay: NCI-60 SRB screen; format: cell-based, human; conditions: Homo sapiens; HCC-2998; single dose 10^−5 M; read-out: Growth inhibition (%)
HCT-116 = assay: NCI-60 SRB screen; format: cell-based, human; conditions: Homo sapiens; HCT-116; single dose 10^−5 M; read-out: Growth inhibition (%)
HCT-15 = assay: NCI-60 SRB screen; format: cell-based, human; conditions: Homo sapiens; HCT-15; single dose 10^−5 M; read-out: Growth inhibition (%)
HT-29 = assay: NCI-60 SRB screen; format: cell-based; conditions: Homo sapiens; HT-29; single dose 10^−5 M; read-out: Growth inhibition (%)
KM12 = assay: NCI-60 SRB screen; format: cell-based, human; conditions: Homo sapiens; KM12; single dose 10^−5 M; read-out: Growth inhibition (%)
SW-620 = assay: NCI-60 SRB screen; format: cell-based; conditions: Homo sapiens; SW-620; single dose 10^−5 M; read-out: Growth inhibition (%)
SF-268 = assay: NCI-60 SRB screen; format: cell-based, human; conditions: Homo sapiens; SF-268; single dose 10^−5 M; read-out: Growth inhibition (%)
SF-295 = assay: NCI-60 SRB screen; format: cell-based, human; conditions: Homo sapiens; SF-295; single dose 10^−5 M; read-out: Growth inhibition (%)
LOX IMVI = assay: NCI-60 SRB screen; format: cell-based, human; conditions: Homo sapiens, single dose 10^−5 M, read-out: Growth inhibition (%)
MALME-3M = assay: NCI-60 SRB screen; format: cell-based, human; conditions: Homo sapiens, single dose 10^−5 M, read-out: Growth inhibition (%)
M14 = assay: NCI-60 SRB screen; format: cell-based, human; conditions: Homo sapiens; M14; single dose 10^−5 M; read-out: Growth inhibition (%)
MDA-MB-435 = assay: NCI-60 SRB screen; format: cell-based; conditions: Homo sapiens, MDA-MB-435, read-out: Growth inhibition (%)
SK-MEL-2 = assay: NCI-60 SRB screen; format: cell-based, human; conditions: Homo sapiens; SK-MEL-2; single dose 10^−5 M; read-out: Growth inhibition (%)
SK-MEL-28 = assay: NCI-60 SRB screen; format: cell-based; conditions: Homo sapiens; SK-MEL-28; single dose 10^−5 M; read-out: Growth inhibition (%)
SK-MEL-5 = assay: NCI-60 SRB screen; format: cell-based, human; conditions: Homo sapiens; SK-MEL-5; single dose 10^−5 M; read-out: Growth inhibition (%)
UACC-62 = assay: NCI-60 SRB screen; format: cell-based, human; conditions: Homo sapiens; UACC-62; single dose 10^−5 M; read-out: Growth inhibition (%)
IGROV1 = assay: NCI-60 SRB screen; format: cell-based, human; conditions: Homo sapiens, IGROV-1; IGROV1; single dose 10^−5 M; read-out: Growth inhibition (%)
OVCAR-3 = assay: NCI-60 SRB screen; format: cell-based, human; conditions: Homo sapiens; OVCAR-3; single dose 10^−5 M; read-out: Growth inhibition (%)
OVCAR-4 = assay: NCI-60 SRB screen; format: cell-based, human; conditions: Homo sapiens; OVCAR-4; single dose 10^−5 M; read-out: Growth inhibition (%)
OVCAR-8 = assay: NCI-60 SRB screen; format: cell-based, human; conditions: Homo sapiens; OVCAR-8; single dose 10^−5 M; read-out: Growth inhibition (%)
NCI/ADR-RES = assay: NCI-60 SRB screen; format: cell-based, human; conditions: Homo sapiens, single dose 10^−5 M, read-out: Growth inhibition (%)
SK-OV-3 = assay: NCI-60 SRB screen; format: cell-based, human; conditions: Homo sapiens; SK-OV-3; single dose 10^−5 M; read-out: Growth inhibition (%)
ACHN = assay: NCI-60 SRB screen; format: cell-based; conditions: Homo sapiens, single dose 10^−5 M, read-out: Growth inhibition (%)
CAKI-1 = assay: NCI-60 SRB screen; format: cell-based, human; conditions: Homo sapiens; CAKI-1; single dose 10^−5 M; read-out: Growth inhibition (%)
RXF 393 = assay: NCI-60 SRB screen; format: cell-based, human; conditions: Homo sapiens; RXF 393; single dose 10^−5 M; read-out: Growth inhibition (%)
SN12C = assay: NCI-60 SRB screen; format: cell-based, human; conditions: Homo sapiens, SN12C; SN 12 C; single dose 10^−5 M; read-out: Growth inhibition (%)
TK-10 = assay: NCI-60 SRB screen; format: cell-based, human; conditions: Homo sapiens; TK-10; single dose 10^−5 M; read-out: Growth inhibition (%)
UO-31 = assay: NCI-60 SRB screen; format: cell-based, human; conditions: Homo sapiens; UO-31; single dose 10^−5 M; read-out: Growth inhibition (%)
[1] = tested on: panel of 60 cancer cell lines; assay: NCI-60 SRB screen, mean or range over the panel; format: cell-based, human; conditions: Homo sapiens; mean over the cell lines; single dose 10^−5 M; read-out: Mean growth inhibition (%)

COc1ccc(C=C2Sc3c(F)cccc3C2=O)c(OC)c1 [Compound 2a, 2-(2,4-Dimethoxybenzylidene)-7-fluoro[1]benzothiophen-3(2H)-one]
inhibition at 10 µM (CCRF-CEM): -5.14%
inhibition at 10 µM (HL-60(TB)): 11%
inhibition at 10 µM (K-562): 4.76%
inhibition at 10 µM (MOLT-4): 4.1%
inhibition at 10 µM (SR): 6.3%
inhibition at 10 µM (A549/ATCC): -7.82%
inhibition at 10 µM (EKVX): -5.71%
inhibition at 10 µM (HOP-62): 5.99%
inhibition at 10 µM (HOP-92): -8.14%
inhibition at 10 µM (NCI-H226): 0.31%
inhibition at 10 µM (NCI-H23): -4.04%
inhibition at 10 µM (NCI-H322M): 0.25%
inhibition at 10 µM (NCI-H460): -6.08%
inhibition at 10 µM (NCI-H522): 6.14%
inhibition at 10 µM (COLO 205): -16%
inhibition at 10 µM (HCC-2998): -12.8%
inhibition at 10 µM (HCT-116): -3.66%
inhibition at 10 µM (HCT-15): -9.73%
inhibition at 10 µM (HT-29): -9.18%
inhibition at 10 µM (KM12): -5.55%
inhibition at 10 µM (SW-620): -4.67%
inhibition at 10 µM (SF-268): 4.51%
inhibition at 10 µM (SF-295): -4.69%
inhibition at 10 µM (LOX IMVI): -0.02%
inhibition at 10 µM (MALME-3M): 4.19%
inhibition at 10 µM (M14): -5.61%
inhibition at 10 µM (MDA-MB-435): -0.27%
inhibition at 10 µM (SK-MEL-2): -17.9%
inhibition at 10 µM (SK-MEL-28): -7.93%
inhibition at 10 µM (SK-MEL-5): -2.91%
inhibition at 10 µM (UACC-62): 7.33%
inhibition at 10 µM (IGROV1): 0.46%
inhibition at 10 µM (OVCAR-3): -7.34%
inhibition at 10 µM (OVCAR-4): -6.44%
inhibition at 10 µM (OVCAR-8): -4.32%
inhibition at 10 µM (NCI/ADR-RES): -3.61%
inhibition at 10 µM (SK-OV-3): 6.36%
inhibition at 10 µM (ACHN): -4.06%
inhibition at 10 µM (CAKI-1): 11.9%
inhibition at 10 µM (RXF 393): -27.9%
inhibition at 10 µM (SN12C): -0.73%
inhibition at 10 µM (TK-10): -34.9%
inhibition at 10 µM (UO-31): 25%
inhibition at 10 µM [1]: -3.74%
